# Where two headings read alike, the source gives them in different places.
# What was measured:
# [1] = tested on: constipation; conditions: in vivo; cited from earlier work
# [2] = tested on: normal volunteers; assay: Single dose laxative study in normal volunteers (Example 1, Study 008-211): stool output, BM frequency, time to first BM, stool water; assay type: in vivo, human
# Procedure: This single center study evaluated sulfate salt compositions containing 43.8 millimoles (mmol) sulfate salts (4.2 g total sulfate) or 80 mmol sulfate salts (7.7 g total sulfate) as compared to 10 mg bisacodyl for efficacy to induce a rapid, controlled bowel movement without significant gains or losses of electrolytes. Normal volunteers were given a single dose of laxative in an in-patient setting during which all stool and urine were collected for 24 hours after laxative administration. Efficacy was based on total stool output, bowel movement frequency and time to first bowel movement (BM). A time to first BM of less than three hours was considered ideal. Stool was analyzed to determine the gain or loss of electrolytes. Safety was assessed through the collection of adverse event data and analysis of urine electrolyte composition.
# Normal male and female volunteers in this single center study were enrolled to receive a single dose of a sulfate laxative formulations or bisacodyl in an open-label, non-randomized fashion.
# Enrolled study subjects received a single dose of a formulation of sulfate salts (dissolved in 120 ml water) and separately, 10 mg bisacodyl, in an open-label, non-randomized fashion. The sulfate preparations, shown below, were compounded by the investigator.
# After an eight hour (overnight) fast, study subjects ingested either a single dose of sulfate laxative (containing sodium sulfate and potassium sulfate) or, on a different day, bisacodyl. Sulfate was initially given with a 1:1 molar ratio sodium to potassium at a dose of 43.8 mmole sulfate salts (4.2 g total sulfate) sulfate to three study subjects. The dose was later increased to 80 mmole sulfate salts (7.7 g total sulfate) in one study subject. The 80 mmol sulfate salt formulation was then changed to a 3:1 sodium to potassium molar ratio for the final five study subjects. Bisacodyl was given at a dose of 10 mg.
# Stool and urine were collected for 24 hours following laxative ingestion.
# (§1) Efficacy was assessed via quantitative measurements of stool weight, bowel movement frequency and time to first BM. All stools were collected, weighed and subsequently analyzed for water and electrolyte composition.
# [3] = tested on: normal volunteers; assay: Adverse events and symptoms, Example 1; assay type: in vivo, human; conditions: bisacodyl 10 mg single dose
# Procedure: (§2) Laxative related adverse events were assessed via subject completion of a study specific questionnaire. Specifically, subjects rated their experience with respect to abdominal cramping, abdominal bloating, abdominal pain, gas, nausea, and vomiting. Stool was analyzed for water and electrolyte composition.
# [4] = tested on: normal volunteers; conditions: bisacodyl 20 mg, n=11, cited from earlier work
# [5] = tested on: normal volunteers; assay: Stool electrolyte output and balance, Example 1; assay type: in vivo, human; conditions: bisacodyl 10 mg
# Procedure: as §1, §2
# Stools collected from study subjects were analyzed for sodium, potassium and sulfate. The data for the 80 mmol sulfate salt formulation and 10 mg bisacodyl are discussed here. The total electrolyte content of the stool was compared with the total electrolyte quantity ingested from the test preparations.
# The 80 mmol sulfate salt formulation was administered initially as a formula with a 1:1 sodium to potassium ratio on a molar basis (1 study subject; DC). Based on the stool analysis results from this subject (see below) the formulation was modified to a 3:1 sodium to potassium ratio for the remaining 5 study subjects. Stool electrolyte balance results are summarized below in Tables 6 and 7.
# [6] = bisacodyl 10 mg single dose, mean, n=7
# [7] = bisacodyl 10 mg single dose, n=7
# [8] = bisacodyl 10 mg, 24 hours following laxative ingestion
compound,measurement,setting,value
CCCCC(F)(F)[C@@]1(O)CC[C@H]2[C@@H](CC(=O)[C@@H]2CCCCCCC(=O)O)O1 [Amitiza],success rate,[1],30%
CC(=O)Oc1ccc(C(c2ccc(OC(C)=O)cc2)c2ccccn2)cc1 [Bisacodyl],Stool Water,"[2]; bisacodyl 10 mg single dose, mean (SD), n=7",85.8% (2.4)
same,BM Frequency,[2]; [6],2.9 #/12 hrs
same,Stool Output,[2]; [6],681 g/12 hrs
same,Time to first BM,[2]; [6],4.4 h
same,Time to first BM,"[2]; bisacodyl 10 mg single dose, mean, n=7, listed as bisacodyl",about 5 hrs
same,"Subjects with BM <3 hrs, number",[2]; [7],1
same,"Subjects with BM <3 hrs, percent",[2]; [7],(14%)
same,"Subjects with BM <3 hrs, percent","[2]; bisacodyl 10 mg single dose, n=7, listed as bisacodyl",14%
same,"bowel movements, average",[2]; [8],about 3
same,"stool, average",[2]; [8],~700 grams
same,"adverse events, gastrointestinal symptoms",[3],one bisacodyl volunteer reported severe cramping
same,BM Frequency,[4]; mean,5.4 #/12hrs
same,Stool Output,[4]; mean,757 g/12hrs
same,Time to first BM,[4]; mean,3.2 h
same,"# with BM <3 hrs, number",[4],5
same,"# with BM <3 hrs, percent",[4],(45%)
same,"# with BM <3 hrs, percent",[4]; listed as bisacodyl,45%
same,potassium loss,[5],about 2 grams
same,sodium losses,[5],1.2 grams
C=CCN1CC[C@]23c4c5ccc(O)c4O[C@H]2[C@@H](OCCOCCOCCOCCOCCOCCOCCOC)CC[C@@]3(O)[C@H]1C5.O=C(O)C(=O)O [Movantik],success rate,[1],approximately 45%
C[N+]1(CC2CC2)CC[C@]23c4c5ccc(O)c4O[C@H]2C(=O)CC[C@@]3(O)[C@H]1C5 (stereo partly shown) [Relistor],success rate,[1],60%

# Source: patent publication US20170182090A1, “Sulfate Salt Solution Laxative Compositions and Methods of Use Thereof” (Braintree Laboratories, Inc., priority 2014, published 2017)
